Assay results published in PubChem BioAssay (NCI).
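Grown in 96-well plates, cells were treated for 48 hours with each compound at five concentrations. Insufficient inhibition: endpoint recorded as highest concentration tested. TGI denotes the concentration required for complete inhibition of growth.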

Tests used:
Experiment in all cases: DTP human tumour cell line panel, 48 h
786-0 renal = tested on: 786-0 renal
A498 renal = tested on: A498 renal
A549 NSCLC = tested on: A549 NSCLC
ACHN renal = tested on: ACHN renal
CCRF-CEM leukemia = tested on: CCRF-CEM leukemia
COLO 205 colon = tested on: COLO 205 colon
DLD-1 colon = tested on: DLD-1 colon
DMS 114 small cell lung = tested on: DMS 114 small cell lung
DMS 273 small cell lung = tested on: DMS 273 small cell lung
EKVX NSCLC = tested on: EKVX NSCLC
HCC-2998 colon = tested on: HCC-2998 colon
HCT-116 colon = tested on: HCT-116 colon
HCT-15 colon = tested on: HCT-15 colon
HL-60(TB) leukemia = tested on: HL-60(TB) leukemia
HOP-18 NSCLC = tested on: HOP-18 NSCLC
HOP-62 NSCLC = tested on: HOP-62 NSCLC
HOP-92 NSCLC = tested on: HOP-92 NSCLC
HT29 colon = tested on: HT29 colon
IGROV1 ovarian = tested on: IGROV1 ovarian
K-562 leukemia = tested on: K-562 leukemia
KM12 colon = tested on: KM12 colon
KM20L2 colon = tested on: KM20L2 colon
LOX IMVI melanoma = tested on: LOX IMVI melanoma
LXFL 529 NSCLC = tested on: LXFL 529 NSCLC
M14 melanoma = tested on: M14 melanoma
M19-MEL melanoma = tested on: M19-MEL melanoma
MALME-3M melanoma = tested on: MALME-3M melanoma
MOLT-4 leukemia = tested on: MOLT-4 leukemia
NCI-H226 lung = tested on: NCI-H226 lung
NCI-H23 lung = tested on: NCI-H23 lung
NCI-H460 lung = tested on: NCI-H460 lung
NCI-H522 lung = tested on: NCI-H522 lung
OVCAR-3 ovarian = tested on: OVCAR-3 ovarian
OVCAR-4 ovarian = tested on: OVCAR-4 ovarian
OVCAR-5 ovarian = tested on: OVCAR-5 ovarian
OVCAR-8 ovarian = tested on: OVCAR-8 ovarian
RPMI-8226 leukemia = tested on: RPMI-8226 leukemia
RXF 393 renal = tested on: RXF 393 renal
SF-268 CNS = tested on: SF-268 CNS
SF-295 CNS = tested on: SF-295 CNS
SF-539 CNS = tested on: SF-539 CNS
SK-MEL-2 melanoma = tested on: SK-MEL-2 melanoma
SK-MEL-28 melanoma = tested on: SK-MEL-28 melanoma
SK-MEL-5 melanoma = tested on: SK-MEL-5 melanoma
SK-OV-3 ovarian = tested on: SK-OV-3 ovarian
SN12C renal = tested on: SN12C renal
SNB-19 CNS = tested on: SNB-19 CNS
SNB-75 CNS = tested on: SNB-75 CNS
SNB-78 CNS = tested on: SNB-78 CNS
SR leukemia = tested on: SR leukemia
SW-620 colon = tested on: SW-620 colon
TK-10 renal = tested on: TK-10 renal
U251 CNS = tested on: U251 CNS
UACC-257 melanoma = tested on: UACC-257 melanoma
UACC-62 melanoma = tested on: UACC-62 melanoma
UO-31 renal = tested on: UO-31 renal
XF 498 CNS = tested on: XF 498 CNS

`O=c1c(O)c(-c2ccc(O)c(O)c2)oc2cc(O)ccc12` gave a TGI (786-0 renal) of over 91.5 µM, a TGI (A498 renal) of 62.3 µM and a TGI (A549 NSCLC) of over 100 µM. For the same compound, the TGI (ACHN renal) was over 91 µM, the TGI (CCRF-CEM leukemia) was over 71.1 µM and the TGI (COLO 205 colon) was over 100 µM. For the same compound, the TGI (DLD-1 colon) was over 100 µM, the TGI (DMS 114 small cell lung) was 55.1 µM and the TGI (DMS 273 small cell lung) was 28.2 µM. It also gave a TGI (EKVX NSCLC) of 65.8 µM, a TGI (HCC-2998 colon) of 41.9 µM and a TGI (HCT-116 colon) of 26.2 µM. It also gave a TGI (HCT-15 colon) of 98.4 µM, a TGI (HL-60(TB) leukemia) of over 84.1 µM and a TGI (HOP-18 NSCLC) of 52.2 µM. For the same compound, the TGI (HOP-62 NSCLC) was over 100 µM, the TGI (HOP-92 NSCLC) was 71.8 µM and the TGI (HT29 colon) was 98.8 µM. The TGI (IGROV1 ovarian) was over 62.8 µM, the TGI (K-562 leukemia) was over 100 µM and the TGI (KM12 colon) was 31 µM. The TGI (KM20L2 colon) was 73.2 µM, the TGI (LOX IMVI melanoma) was 32.4 µM and the TGI (LXFL 529 NSCLC) was over 87.7 µM. It also gave a TGI (M14 melanoma) of 44 µM, a TGI (M19-MEL melanoma) of over 88.1 µM and a TGI (MALME-3M melanoma) of over 77 µM. It also gave a TGI (MOLT-4 leukemia) of over 72.5 µM, a TGI (NCI-H226 lung) of 39.5 µM and a TGI (NCI-H23 lung) of 31.8 µM. It also gave a TGI (NCI-H460 lung) of 29.2 µM, a TGI (NCI-H522 lung) of 45.3 µM and a TGI (OVCAR-3 ovarian) of 62 µM. For the same compound, the TGI (OVCAR-4 ovarian) was over 100 µM, the TGI (OVCAR-5 ovarian) was 42.1 µM and the TGI (OVCAR-8 ovarian) was 56.3 µM. The TGI (RPMI-8226 leukemia) was over 79.9 µM, the TGI (RXF 393 renal) was 47 µM and the TGI (SF-268 CNS) was over 74.1 µM. For the same compound, the TGI (SF-295 CNS) was 54.4 µM, the TGI (SF-539 CNS) was 26.7 µM and the TGI (SK-MEL-2 melanoma) was 23.2 µM. The TGI (SK-MEL-28 melanoma) was over 58.4 µM, the TGI (SK-MEL-5 melanoma) was 27.4 µM and the TGI (SK-OV-3 ovarian) was 59.9 µM. It also gave a TGI (SN12C renal) of 56.4 µM, a TGI (SNB-19 CNS) of over 100 µM and a TGI (SNB-75 CNS) of 18.2 µM. It also gave a TGI (SNB-78 CNS) of 67.2 µM, a TGI (SR leukemia) of 99.8 µM and a TGI (SW-620 colon) of 60.1 µM. The TGI (TK-10 renal) was over 88.8 µM, the TGI (U251 CNS) was 35.6 µM and the TGI (UACC-257 melanoma) was over 67.7 µM. The TGI (UACC-62 melanoma) was 39.5 µM, the TGI (UO-31 renal) was 23.4 µM and the TGI (XF 498 CNS) was 44.1 µM.
